Molecules are shown by their SMILES.

The term IC50 denotes the midpoint of a concentration-inhibition curve.

This assay concerns the target T1, mouse ANO2 (Mus musculus, UniProt Q8CFW1).
T1 construct: expressed in transfected cells; host or cells: Fisher rat thyroid (FRT) cells, stably transfected, co-expressing halide sensor YFP
T1 sequence (Q8CFW1 1-1002): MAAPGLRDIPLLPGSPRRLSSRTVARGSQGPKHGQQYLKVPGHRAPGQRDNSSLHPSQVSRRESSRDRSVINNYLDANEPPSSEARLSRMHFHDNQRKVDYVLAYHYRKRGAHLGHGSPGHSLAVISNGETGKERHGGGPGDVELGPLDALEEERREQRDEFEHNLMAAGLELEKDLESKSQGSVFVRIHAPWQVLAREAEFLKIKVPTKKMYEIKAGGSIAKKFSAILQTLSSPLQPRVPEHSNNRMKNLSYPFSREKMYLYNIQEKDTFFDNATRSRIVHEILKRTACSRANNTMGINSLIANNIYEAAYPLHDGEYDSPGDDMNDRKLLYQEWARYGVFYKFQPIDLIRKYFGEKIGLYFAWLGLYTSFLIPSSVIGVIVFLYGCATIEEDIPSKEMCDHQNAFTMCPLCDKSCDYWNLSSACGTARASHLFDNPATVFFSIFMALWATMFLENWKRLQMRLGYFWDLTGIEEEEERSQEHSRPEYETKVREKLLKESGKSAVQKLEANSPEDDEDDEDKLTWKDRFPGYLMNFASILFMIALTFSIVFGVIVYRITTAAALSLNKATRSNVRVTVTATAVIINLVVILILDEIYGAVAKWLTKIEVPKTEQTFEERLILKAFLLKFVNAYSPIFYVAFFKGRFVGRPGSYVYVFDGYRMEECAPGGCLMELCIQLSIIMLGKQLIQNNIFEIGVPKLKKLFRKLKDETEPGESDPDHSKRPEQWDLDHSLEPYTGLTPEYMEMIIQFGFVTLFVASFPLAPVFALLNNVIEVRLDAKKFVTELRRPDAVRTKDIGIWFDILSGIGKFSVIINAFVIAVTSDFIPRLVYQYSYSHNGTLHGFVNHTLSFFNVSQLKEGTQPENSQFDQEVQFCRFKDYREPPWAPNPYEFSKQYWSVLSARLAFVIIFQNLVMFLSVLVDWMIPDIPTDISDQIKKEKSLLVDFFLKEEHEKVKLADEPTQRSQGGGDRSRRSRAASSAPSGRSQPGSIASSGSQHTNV
Put plainly: YFP quenching assay in FRT cells expressing mouse ANO2. It is filed as cell-based. To be noted: FRT cells expressing mouse ANO2 and YFP; read-out: IC50, ATP-induced activation of ANO2. The procedure:
Fisher rat thyroid (FRT) cells were stably transfected with human ANO1 (abc) or mouse ANO2 and the halide sensor YFP as described in previous study. FRT cells were cultured in Coon`s modified F12 medium with 10% FBS, 2 mM L-glutamine, 100 units/ml penicillin and 100 μg/ml streptomycin at 37°C and 5% CO2. PC-3 cells were grown in RPMI 1640 medium supplemented with 10% FBS, 100 units/ml penicillin and 100 μg/ml streptomycin at 37°C and 5% CO2. There were populations of PC-3 cells with high and low expression of ANO1. […]
ANO1 and YFP expressing FRT cells were plated in 96-well black-walled microplates (Corning Inc., Corning, NY) at a density of 20,000 cells per well. Assays were done using FLUOstar Omega microplate reader (BMG Labtech, Ortenberg, Germany) and MARS Data Analysis Software (BMG Labtech) as described in our previous study. […] After 10 minutes incubation at 37°C, 96-well plates were transferred to the plate reader for fluorescence assay. Each well was assayed individually for ANO1-mediated I^- influx by monitoring YFP fluorescence continuously (400 ms per point) for 2 s (baseline), then 140 mM I^- solution containing 200 μM ATP was added at 2 s and then YFP fluorescence was recorded for 6 s. Initial iodide influx rate was determined from the initial slope of fluorescence decrease, by nonlinear regression, following infusion of iodide with ATP.

Consider `O=c1cc(-c2ccc(O)c(O)c2)oc2cc(O)cc(O)c12` [luteolin], for which the IC50 was approximately 120 µM.
